# Reference: patent US10183032B2, “Methods for treating bacterial infection” (Ball State Innovation Corporation, priority 2012, dated 2019)
# Read-outs that look alike come from different tables or passages of the source.
# What was measured:
# Staphylococcus aureus [1] = assay: Assessment of bactericidal activity (DMEM, 10% fetal bovine serum); type: cell-based; conditions: 3.2 × 10^6 CFU S. aureus, 1 h in DMEM with 10% fetal bovine serum; head prints 20 mM
# Streptococcus pyogenes = Streptococcus pyogenes invasion assay in HUVEC, CFU recovery; type: cell-based; conditions: for inhibition at 10 µM: Streptococcus pyogenes, HUVEC
# Method: FIG. 12 is a graph illustrating that ML 141 inhibition of cell invasion by S. pyogenes is reversible. HUVEC were pretreated with ML 141 (10 μM) or with dimethyl sulfoxide (DMSO) as the vehicle control (1 h). Following pretreatment, ML 141-containing media was removed from the washout samples and replaced with DMSO-containing media for 60 min prior to incubation with Streptococcus pyogenes at a multiplicity of infection of 30 (2 h). Extracellular bacteria were removed by gentamicin, an antimicrobial with limited mammalian membrane permeability. Intracellular bacteria were released from HUVEC into the medium by incubation in cold water (5 min). Serial dilutions were incubated (16 h) on Todd Hewitt broth/blood agar plates and colonies enumerated to determine colony forming units (CFU)/ml (*P<0.05 by one-way ANOVA followed by Student-Newman-Keuls post-hoc analysis; n=4/treatment).
# Human umbilical vein endothelial cells (HUVEC, EMD Millipore, Billerica, Mass., SCCE001) were cultured in EndoGRO-LS complete media (EMD Millipore, SCME001) and maintained in 75 cm^2 vented cap flasks (Thermo-Fisher Scientific, Pittsburgh, Pa., 10-126-37) at 37° C./5% CO2. Streptococcus pyogenes (90-226, M1+) was cultured in Todd Hewitt broth (THB, Thermo-Fisher Scientific, DF0492-17-6) and grown at 37° C. with no shaking.
# Two days prior to infection, S. pyogenes were cultured in 5 ml THB 18-24 h from a single colony grown on THB/blood (Cleveland Scientific, Bath, Ohio, SBCIT-100) agar (Moorhead & Company, Rocklin, Calif., gelidium), and 10 μl subcultured 18 h prior to infection. HUVEC were seeded in 24-well plates (Sigma-Aldrich, St. Louis, Mo., CLS3524) that had been coated with Attachment Factor (Life Technologies, Carlsbad, Calif., S006100) for 30 min at 37° C./5% CO2. HUVEC were plated at a density of 1.5×10^5 cells/well. For infection, S. pyogenes were harvested by centrifugation, 37° C./3 min/10,000 RPM, washed, and resuspended in fresh 0.85% saline (NaCl, Thermo-Fisher Scientific, S-271-500). Bacteria were diluted to 4.8×10^8 colony forming units (CFU)/ml and incubated at 37° C./5% CO2 with HUVEC at multiplicity of infection and for duration indicated in each figure or table. CFU of 90-226 S. pyogenes had been determined from a growth curve, fitting an OD600 of 0.5 to 4.8×10^8 CFU/ml. After infection, each well was washed three times with sterile 1× phosphate buffered saline (PBS, Life Technologies, 20012043) to remove unattached S. pyogenes. HUVEC were then incubated at 37° C., 5% CO2 for 45 min in 10% fetal bovine serum (FBS, Atlanta Biologicals, Flowery Branch, Ga., S111S0)/PBS containing 500 μg/ml gentamicin (Sigma-Aldrich, G1272). Following the incubation with gentamicin to remove extracellular bacteria, HUVEC were washed three times with PBS. Sterile distilled ice-cold water (Life Technologies, 15230-162) was added to each well for 5 min at room temperature (RT) to permeabilize the host cells. Serial dilutions of this bacteria-containing water were performed in saline, plated on THB/blood agar, and incubated for 18-20 h at 37° C. The following day, colonies were counted to determine CFU/ml recovered from invasion.
# Staphylococcus aureus [2] = assay: S. aureus invasion of monocytic cell line U937, flow cytometry; type: cell-based; conditions: pretreatment 0.05 μM, 1 hour
# Method: FIG. 1 illustrates ML 141 limits host cell invasion. The monocytic cell line U937 was pretreated with the vehicle control dimethyl sulfoxide (DMSO) or with ML 141 (0.05 μM, 1 h) followed by infection with Alexa Fluor 488-labeled S. aureus (1 hour). The % of 488^+ cells decreased with ML 141 treatment.
# (§1) Specific pharmacologic inhibition of CDC42 has been examined to determine whether it is sufficient in the inhibition of host cell invasion by S. aureus. Host cell cytotoxicity was undetectable below 30 μM in vitro. The highest concentration of ML 141 introduced in vivo without detectable toxicity was 100 mg/kg body weight [BW]. The compound was dissolved in polyethylene glycol and administered as a single intraperitoneal injection to C57BL/6 mice.
# host cell = assay: Host cell cytotoxicity in vitro (preliminary data); type: cell-based
# [3] = In vivo toxicity, single intraperitoneal injection; conditions: dissolved in polyethylene glycol, C57BL/6 mice
# Method: as §1
# β1 integrin subunit = assay: β1 integrin surface expression in HUVEC, flow cytometry; type: cell-based, human; conditions: ML 141 10 μM versus DMSO
# Method: FIG. 10B is a graph illustrating that expression of the […] integrin subunit remains substantially unchanged in HUVEC incubated with DMSO or ML 141 (10 μM). Pretreated HUVEC were stained with PE conjugated anti-β1 and examined using flow cytometry (no difference between groups was detected, t-test, p>0.05).
# To examine β1 surface expression, recycling of the integrin was terminated (4° C., 15 min) and HUVEC lifted from plates using cell scrapers. After washing in FACS buffer (2% BSA/0.1% sodium azide/PBS), cells were incubated with PE-conjugated anti-β1 (BD; 30 min, on ice), washed, fixed in FACS buffer containing 4% paraformaldehyde, and analyzed using an Accuri C6 flow cytometer (BD).
smiles,measurement,setting,value
"COc1ccc(C2CC(c3ccccc3)=NN2c2ccc(S(N)(=O)=O)cc2)cc1 (stereo not drawn) [ML 141, 4-[3-(4-methoxyphenyl)-5-phenyl-3,4-dihydropyrazol-2-yl]benzenesulfonamide]","CFU/mL (×10^9 ± SEM), Compound",Staphylococcus aureus [1],0.9 ± 0.09 ×10^9 CFU/mL
same,reversibility of inhibition of S. pyogenes invasion,"Streptococcus pyogenes; ML 141 10 μM 1 h, washout 60 min, MOI 30, 2 h",reversible
same,% Inhibition (± SEM),"Streptococcus pyogenes; ML 141 10 μM added 1 hour post-infection, 2 h, MOI 0.25",No difference
same,% Inhibition (± SEM),"Streptococcus pyogenes; ML 141 10 μM added at time of infection, 2 h, MOI 30",No difference
same,inhibition at 10 µM,"Streptococcus pyogenes; 2 h, read-out: % Inhibition (± SEM), ML 141 10 μM added at time of infection, 2 h, MOI 0.25 (first line)",81 ± 7%
same,inhibition at 10 µM,"Streptococcus pyogenes; 2 h, read-out: % Inhibition (± SEM), ML 141 10 μM added at time of infection, 2 h, MOI 0.25 (second line)",62 ± 10%
same,inhibition at 10 µM,"Streptococcus pyogenes; read-out: % Inhibition (± SEM), ML 141 10 μM added 18-20 hours pre-infection, duration of infection 2 h, MOI 30",96 ± 4%
same,inhibition at 10 µM,"Streptococcus pyogenes; read-out: % Inhibition (± SEM), ML 141 10 μM added 1 hour post-infection, 2 h, MOI 0.0025",92 ± 6%
same,invasion by S. aureus (% of 488+ cells),Staphylococcus aureus [2],decreased invasion
same,concentration at which host cell cytotoxicity was undetectable,host cell,below 30 μM
same,highest concentration introduced in vivo without detectable toxicity,[3],100 mg/kg body weight
same,expression of β1 integrin subunit,β1 integrin subunit,no difference
